Laboratory results as given in patent US20120015029A1, “DIRECT COMPRESSION FORMULATION AND PROCESS” (priority 2005, published 2012).

Experiments:
[1] = Water sorption/desorption isotherm (dynamic vapor sorption, DVS-1); settings: 25° C., 85% RH
[2] = Pharmacokinetic drug-drug interaction study vildagliptin 100 mg qd and metformin 1000 mg qd in patients with type 2 diabetes; type: in vivo, human; settings: type 2 diabetes patients, steady state, vildagliptin 100 mg qd FMI tablets alone or with metformin 1000 mg qd, 5 days
Method: Subjects are given an end-of-study evaluation on the last day of period 2 (Day 20). For all treatment periods, subjects fasted for a minimum of 10 hours pre-dose to 4 hours post-dose. Subjects are considered to have completed the study when all safety and pharmacokinetic evaluations have been completed.
The pharmacokinetic profiles are illustrated in FIG. 5.

hygroscopicity [1] | moisture gain [1] | Tmax median [2] | SMILES
only very slightly hygroscopic | 0.9% | – | N#C[C@@H]1CCCN1C(=O)CNC12CC3CC(CC(O)(C3)C1)C2 [Crystalline vildagliptin Form A, (S)-1-[(3-hydroxy-1-adamantyl)amino]acetyl-2-cyano-pyrrolidine]
hygroscopic | 4.2% | – | N#C[C@@H]1CCCN1C(=O)CNC12CC3CC(CC(O)(C3)C1)C2 [vildagliptin amorphous form, (S)-1-[(3-hydroxy-1-adamantyl)amino]acetyl-2-cyano-pyrrolidine]
– | – | 1.00 h | N#C[C@@H]1CCCN1C(=O)CNC12CC3CC(CC(O)(C3)C1)C2 [vildagliptin, (S)-1-[(3-hydroxy-1-adamantyl)amino]acetyl-2-cyano-pyrrolidine]
